Laboratory results from ChEMBL document CHEMBL4342498, “Design and Discovery of an Orally Efficacious Spiroindolinone-Based Tankyrase Inhibitor for the Treatment of Colon Cancer” (J Med Chem, 2020).
In brackets after ≈: the same amount, converted by molar mass.

Tests used:
Tankyrase 1/2 = biological target: T1, Tankyrase 1/2 (Homo sapiens, UniProt Q9H2K2+O95271); conditions: hek293
T1 sequence (Q9H2K2 whole entry): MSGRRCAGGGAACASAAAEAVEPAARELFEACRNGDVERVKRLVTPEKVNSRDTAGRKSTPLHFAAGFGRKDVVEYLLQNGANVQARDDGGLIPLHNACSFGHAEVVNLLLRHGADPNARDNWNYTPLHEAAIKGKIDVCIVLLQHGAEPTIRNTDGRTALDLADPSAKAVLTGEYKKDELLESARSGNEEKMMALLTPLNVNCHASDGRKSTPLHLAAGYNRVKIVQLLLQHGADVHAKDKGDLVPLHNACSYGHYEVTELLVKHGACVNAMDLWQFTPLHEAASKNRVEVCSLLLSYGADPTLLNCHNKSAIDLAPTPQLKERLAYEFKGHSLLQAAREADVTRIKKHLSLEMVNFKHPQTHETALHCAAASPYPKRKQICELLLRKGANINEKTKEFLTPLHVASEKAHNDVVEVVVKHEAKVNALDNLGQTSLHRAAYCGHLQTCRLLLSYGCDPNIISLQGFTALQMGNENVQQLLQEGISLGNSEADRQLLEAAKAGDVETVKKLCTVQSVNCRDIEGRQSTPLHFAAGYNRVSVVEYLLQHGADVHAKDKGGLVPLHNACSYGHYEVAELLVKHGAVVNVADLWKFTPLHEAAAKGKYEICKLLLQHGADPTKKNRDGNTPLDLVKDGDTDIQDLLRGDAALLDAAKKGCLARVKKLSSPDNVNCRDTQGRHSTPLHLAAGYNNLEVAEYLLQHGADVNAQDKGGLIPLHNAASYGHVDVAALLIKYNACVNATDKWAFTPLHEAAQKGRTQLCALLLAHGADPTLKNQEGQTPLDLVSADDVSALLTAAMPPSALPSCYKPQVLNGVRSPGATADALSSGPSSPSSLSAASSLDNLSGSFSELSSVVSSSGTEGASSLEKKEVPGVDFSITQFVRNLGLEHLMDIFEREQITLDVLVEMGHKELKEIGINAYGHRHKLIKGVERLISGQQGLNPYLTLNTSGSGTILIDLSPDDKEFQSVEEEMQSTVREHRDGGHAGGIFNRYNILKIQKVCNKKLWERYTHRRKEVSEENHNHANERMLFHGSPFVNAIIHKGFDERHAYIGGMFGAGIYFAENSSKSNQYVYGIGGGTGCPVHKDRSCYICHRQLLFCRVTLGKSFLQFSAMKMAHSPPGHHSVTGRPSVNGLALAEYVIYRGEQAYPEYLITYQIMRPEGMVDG
T1 sequence (O95271 whole entry): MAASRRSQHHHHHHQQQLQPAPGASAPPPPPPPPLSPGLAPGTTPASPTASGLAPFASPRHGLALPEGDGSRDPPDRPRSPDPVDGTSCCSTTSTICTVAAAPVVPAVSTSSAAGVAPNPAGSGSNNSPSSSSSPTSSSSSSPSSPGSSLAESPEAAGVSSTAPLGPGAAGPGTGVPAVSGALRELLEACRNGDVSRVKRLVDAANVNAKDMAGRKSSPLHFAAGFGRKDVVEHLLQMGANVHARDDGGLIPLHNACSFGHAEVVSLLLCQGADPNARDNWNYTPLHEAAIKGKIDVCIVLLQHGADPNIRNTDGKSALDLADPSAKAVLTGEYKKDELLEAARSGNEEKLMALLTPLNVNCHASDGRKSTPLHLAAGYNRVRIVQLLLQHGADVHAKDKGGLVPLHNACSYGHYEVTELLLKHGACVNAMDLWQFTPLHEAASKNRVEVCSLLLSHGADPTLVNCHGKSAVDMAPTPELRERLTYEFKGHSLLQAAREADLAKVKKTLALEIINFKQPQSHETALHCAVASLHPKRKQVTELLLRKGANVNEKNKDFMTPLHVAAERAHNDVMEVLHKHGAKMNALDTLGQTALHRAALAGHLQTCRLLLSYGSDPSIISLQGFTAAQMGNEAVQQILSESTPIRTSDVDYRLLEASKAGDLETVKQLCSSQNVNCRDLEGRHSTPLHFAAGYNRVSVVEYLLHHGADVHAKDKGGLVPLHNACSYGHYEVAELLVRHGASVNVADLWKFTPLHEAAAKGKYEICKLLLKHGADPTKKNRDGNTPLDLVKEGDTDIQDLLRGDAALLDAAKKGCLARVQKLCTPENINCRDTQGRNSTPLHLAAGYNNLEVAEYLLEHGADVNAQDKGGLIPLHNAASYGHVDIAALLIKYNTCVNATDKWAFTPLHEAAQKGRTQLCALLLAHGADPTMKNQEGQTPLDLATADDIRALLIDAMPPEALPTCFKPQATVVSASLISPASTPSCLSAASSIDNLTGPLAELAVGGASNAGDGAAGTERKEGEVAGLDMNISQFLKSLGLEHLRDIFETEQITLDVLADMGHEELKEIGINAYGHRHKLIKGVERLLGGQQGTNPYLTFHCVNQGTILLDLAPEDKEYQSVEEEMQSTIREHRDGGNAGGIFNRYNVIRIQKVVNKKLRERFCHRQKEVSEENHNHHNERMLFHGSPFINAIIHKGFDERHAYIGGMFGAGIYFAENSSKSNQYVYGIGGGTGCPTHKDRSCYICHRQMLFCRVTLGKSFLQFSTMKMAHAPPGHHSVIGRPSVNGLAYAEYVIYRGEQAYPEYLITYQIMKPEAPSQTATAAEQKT
Description: Inhibition of TNKS/TNKS2 (unknown origin) expressed in HEK293 cells assessed as reduction in Wnt-signaling measured after 24 hrs by TCF-luciferase reporter gene assay

[1] = Half life in ICR mouse at 50 mg/kg, ip; type: ADME, organism-based; conditions: in vivo
[2] = Protein binding in mouse plasma assessed as unbound fraction at 1 uM measured after 24 hrs by LC-MS/MS analysis; type: ADME, cell-free
[3] = biological target: T2, Poly [ADP-ribose] polymerase tankyrase-1 (Homo sapiens, UniProt O95271)
T2 sequence (O95271 whole entry): T1 sequence (O95271 whole entry)
Description: Inhibition of recombinant human N-terminal TEV cleavage site-fused/FLAG-poly his-tagged TNKS SAM-PARP domain (1024 to 1327 residues) expressed in Escherichia coli assessed as reduction in auto-PARylation preincubated for 10 mins followed by biotinylated-NAD+ addition and measured after 45 mins by ELISA

physchem = conditions: phosphate buffered saline, pH 7.4
[4] = Protein binding in human plasma assessed as unbound fraction at 1 uM measured after 24 hrs by LC-MS/MS analysis; type: ADME, cell-free
[5] = AUC (infinity) in ICR mouse at 50 mg/kg, ip; type: ADME, organism-based; design: dose 50 mg/kg, route intraperitoneal, time infinity; conditions: in vivo
[6] = Stability in rat liver microsomes assessed as parent compound remaining at 1 uM measured after 60 mins in presence of NADPH by LC-MS/MS analysis; type: ADME, Microsome; conditions: read-out: Stability
[7] = Cmax in ICR mouse at 50 mg/kg, ip; type: ADME, organism-based; design: dose 50 mg/kg, route intraperitoneal; conditions: in vivo
[8] = Tmax in ICR mouse at 50 mg/kg, po; type: ADME, organism-based; conditions: in vivo
[9] = Half life in ICR mouse at 50 mg/kg, po; type: ADME, organism-based; conditions: in vivo
MDR1 = experiment: Efflux ratio of permeability across basolateral to apical side over apical to basolateral side in MDCK2-MDR1 cells; type: ADME, cell-based, Canis lupus familiaris; conditions: dog, MDCK-MDR1
[10] = Stability in mouse liver microsomes assessed as parent compound remaining at 1 uM measured after 60 mins in presence of NADPH by LC-MS/MS analysis; type: ADME, Microsome; conditions: read-out: Stability

Row | IC50 (Tankyrase 1/2) | half-life [1] | fraction unbound at 24 h, 1 µM [2] | IC50 [3] | solubility at 1 h, 200 µM (physchem) | fraction unbound at 24 h, 1 µM [4] | AUC(0-inf) [5] | remaining at 1 h, 1 µM [6] | Cmax [7] | Tmax [8] | half-life [9] | efflux ratio (MDR1) | remaining at 1 h, 1 µM [10] | SMILES
1 | 0.3 nM | 1.9 h | 0.006 | 36.1 nM | 34.1 µg/mL (≈ 66.8 µM) | 0.003 | 607 µM·h | 44% | 102 µM | 1 h | 1.8 h | 1 | 28.7 to 55.9% | C[C@@H]1CN(c2cc(F)c3c(c2)N(C)C(=O)C32CCN(c3nc4c(c(=O)[nH]3)CCCN4C)CC2)C[C@H](C)O1
2 | 0.9 nM | 2.5 h | 0.019 | 7.7 nM | 94.5 µg/mL (≈ 191 µM) | 0.004 | 207 µM·h | 65.3% | 53.6 µM | 0.25 h | 4 h | 13.2 | 30.5 to 54.5% | CN1CCN(c2cc(F)c3c(c2)N(C)C(=O)C32CCN(c3nc4c(c(=O)[nH]3)CCCN4C)CC2)CC1
